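Where inhibition never reached the appropriate level, the endpoint shown equals the highest concentration tested. Otherwise, values were interpolated linearly from a five-concentration, 48-hour dose response in 96-well plates. TGI denotes the concentration required for complete inhibition of growth.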
Key:
Test in all cases: NCI anticancer screen, dose series, 48 h
[1] = tested on: CAKI-1 renal
[2] = tested on: HCT-116 colon
[3] = tested on: HL-60(TB) leukemia
[4] = tested on: HOP-62 NSCLC
[5] = tested on: HT29 colon
[6] = tested on: IGROV1 ovarian
[7] = tested on: K-562 leukemia
[8] = tested on: LOX IMVI melanoma
[9] = tested on: M14 melanoma
[10] = tested on: NCI-H226 lung
[11] = tested on: NCI-H522 lung
[12] = tested on: RPMI-8226 leukemia
[13] = tested on: SN12C renal
[14] = tested on: SNB-75 CNS
[15] = tested on: SR leukemia
[16] = tested on: U251 CNS
[17] = tested on: UACC-257 melanoma
[18] = tested on: HS 578T breast
[19] = tested on: BT-549 breast
[20] = tested on: MDA-N

Measured: TGI

COc1cc2c(oc(=O)c3c4occc4cc(OC)c23)c2cccc(OCc3ccccc3)c12
> 100 µM: [1] | [2] | [3] | [4] | [5] | [6] | [7] | [8] | [9] | [10] | [11] | [12] | [13] | [14] | [15] | [16] | [17]

O=C(O)[C@@H]1OCCOCCO[C@@H](C(=O)O)[C@H](C(=O)O)OCCOCCO[C@H]1C(=O)O
> 86.9 µM: [16]
> 60.9 µM: [12]
38.4 µM: [3]
40 µM: [15]
> 100 µM: [1] | [2] | [4] | [5] | [6] | [7] | [8] | [9] | [10] | [11] | [13] | [14] | [17]

O=C(c1ccco1)N(C(=S)N1CCN(c2ccccc2)CC1)C1CCCCC1
> 100 µM: [1] | [2] | [3] | [4] | [5] | [6] | [7] | [8] | [9] | [11] | [12] | [13] | [14] | [15] | [16] | [17]

Cc1ccc(S(=O)(=O)NC(=O)Nc2cccc(S(N)(=O)=O)c2)cc1
> 100 µM: [1] | [2] | [3] | [4] | [18] | [5] | [6] | [7] | [8] | [9] | [10] | [11] | [12] | [14] | [15] | [16]

COc1ccc2c(c1)CC1COc3cc(OC)ccc3C1O2 (configuration not stated)
> 100 µM: [19] | [1] | [2] | [4] | [5] | [6] | [8] | [9] | [20] | [10] | [11] | [12] | [13] | [15] | [16] | [17]

O=c1cc(-c2ccccc2)[nH]c2ccc(S)cc12
37 µM: [13]
> 100 µM: [3] | [4] | [18] | [6] | [7] | [12] | [15] | [16] | [17]
64.5 µM: [11]
93.1 µM: [5]
76.1 µM: [14]
81.9 µM: [10]
84.8 µM: [9]
55.2 µM: [19]
66.9 µM: [2]

CCO/S(=N/S(=O)(=O)c1ccccc1)c1ccccc1[N+](=O)[O-] (configuration not stated)
> 100 µM: [1] | [4] | [5] | [6] | [7] | [8] | [9] | [10] | [11] | [12] | [13] | [14] | [15] | [16] | [17]

[N-]=[N+]=NC1(c2ccccc2)C(=O)C(Cl)=C(c2ccccc2)N(c2ccccc2)C1=O (configuration not stated)
> 100 µM: [1] | [2] | [3] | [4] | [5] | [6] | [7] | [8] | [9] | [11] | [13] | [14] | [15] | [16] | [17]

CCOC(=O)C(C)Sc1nnc(COc2ccc(Cl)cc2)n1-c1ccccc1 (configuration not stated)
50.3 µM: [6]
39.7 µM: [3]
47.3 µM: [17]
32.9 µM: [13]
37.5 µM: [4]
46.9 µM: [10]
31.7 µM: [1]
> 100 µM: [14]
30.9 µM: [9]
5.16 µM: [11]
35.1 µM: [16]
36.5 µM: [2]
27.4 µM: [8]
49.9 µM: [7]
45.7 µM: [12]
31.9 µM: [5]

O=C(c1cccc2ccccc12)C1S(=O)(=O)OCCOS1(=O)=O
> 100 µM: [19] | [1] | [2] | [3] | [4] | [5] | [7] | [9] | [20] | [12] | [13] | [15] | [16]

NC(=O)CN1CC(C2=C(O)CN(CC(N)=O)C2=O)=CC1=O
> 100 µM: [19] | [1] | [2] | [3] | [4] | [18] | [5] | [6] | [7] | [8] | [9] | [10] | [11] | [12] | [13] | [14] | [15] | [16] | [17]

From PubChem BioAssay (NCI)
